This is an account of results in ChEMBL document CHEMBL4118098, “Discovery of DS28120313 as a potent orally active hepcidin production inhibitor: Design and optimization of novel 4,6-disubstituted indazole derivatives” (Bioorg Med Chem Lett, 2017).

As usually defined, the inhibition is the drop in the measured response relative to a control, in per cent.

The target in assay [1] is SRSF protein kinase 3 (Homo sapiens) (UniProt Q9UPE1). The assay can be described thus: Inhibition of MSSK1 (unknown origin) at 0.164 uM relative to control.
Assay [2] concerns the target Ribosomal protein S6 kinase alpha-5 (Homo sapiens) (UniProt O75582). The experiment in a line: Inhibition of MSK1 (unknown origin) at 0.164 uM relative to control.
The target of assay [3] is Interleukin-1 receptor-associated kinase 4 (Homo sapiens) (UniProt Q9NWZ3). The experiment in a line: Inhibition of IRAK4 (unknown origin) at 0.164 uM relative to control.
The target in assay [4] is CDK4/Cyclin D3 (Homo sapiens) (UniProt P11802+P30281). The assay can be described thus: Inhibition of CDK4/CyclinD3 (unknown origin) at 0.164 uM relative to control. In kind it is protein-complex assay.
In assay [5] the target is Ephrin type-A receptor 4 (Homo sapiens) (UniProt P54764). The experiment in a line: Inhibition of EPHA4 (unknown origin) at 0.164 uM relative to control.
For assay [6], the target named is Mitogen-activated protein kinase 14 (Homo sapiens) (UniProt Q16539). The assay can be described thus: Inhibition of p38a (unknown origin) at 0.164 uM relative to control.
In assay [7] the target is Casein kinase I isoform epsilon (Homo sapiens) (UniProt P49674). The assay can be described thus: Inhibition of CK1-epsilon (unknown origin) at 0.164 uM relative to control.
In assay [8] the target is Insulin-like growth factor 1 receptor (Homo sapiens) (UniProt P08069). The assay can be described thus: Inhibition of IGF1R (unknown origin) at 0.164 uM relative to control.
Assay [9] concerns the target Casein kinase I isoform delta (Homo sapiens) (UniProt P48730). The experiment in a line: Inhibition of CK1-delta (unknown origin) at 0.164 uM relative to control.
Assay [10] concerns the target Ephrin type-A receptor 5 (Homo sapiens) (UniProt P54756). The experiment in a line: Inhibition of EPHA5 (unknown origin) at 0.164 uM relative to control.
Assay [11] concerns the target T1, Tyrosine-protein kinase TXK (Homo sapiens) (UniProt P42681).
T1 sequence (whole entry): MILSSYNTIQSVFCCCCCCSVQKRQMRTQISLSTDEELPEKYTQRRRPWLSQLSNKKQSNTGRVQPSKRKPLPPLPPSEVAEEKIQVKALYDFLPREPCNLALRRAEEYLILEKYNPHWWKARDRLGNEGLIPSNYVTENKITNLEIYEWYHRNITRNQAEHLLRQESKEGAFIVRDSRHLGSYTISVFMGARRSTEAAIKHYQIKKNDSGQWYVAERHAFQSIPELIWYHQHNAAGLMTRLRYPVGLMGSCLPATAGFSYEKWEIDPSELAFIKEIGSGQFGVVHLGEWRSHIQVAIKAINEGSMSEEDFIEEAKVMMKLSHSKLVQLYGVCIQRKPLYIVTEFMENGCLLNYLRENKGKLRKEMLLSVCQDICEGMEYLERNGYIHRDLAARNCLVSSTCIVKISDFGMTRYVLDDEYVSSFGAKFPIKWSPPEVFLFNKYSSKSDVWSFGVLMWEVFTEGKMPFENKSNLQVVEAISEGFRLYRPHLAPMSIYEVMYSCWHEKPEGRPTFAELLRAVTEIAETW
The assay can be described thus: Inhibition of TXK (unknown origin) at 0.164 uM relative to control.

The target of assay [12] is Cyclin-dependent kinase 1/cyclin B1 (Homo sapiens) (UniProt P06493+P14635). The experiment in a line: Inhibition of CDK1/CyclinB (unknown origin) at 0.164 uM relative to control. Format: protein-complex assay.
The target in assay [13] is Tyrosine-protein kinase ITK/TSK (Homo sapiens) (UniProt Q08881). The experiment in a line: Inhibition of ITK (unknown origin) at 0.164 uM relative to control.
The target in assay [14] is Serine/threonine-protein kinase PAK 2 (Homo sapiens) (UniProt Q13177). The assay can be described thus: Inhibition of PAK2 (unknown origin) at 0.164 uM relative to control.
The target of assay [15] is Tyrosine-protein kinase Fes/Fps (Homo sapiens) (UniProt P07332). The experiment in a line: Inhibition of FES (unknown origin) at 0.164 uM relative to control.
Assay [16] has as its target Protein kinase C alpha type (Homo sapiens) (UniProt P17252). The experiment in a line: Inhibition of PKC-alpha (unknown origin) at 0.19 uM relative to control.
Assay [17] concerns the target BDNF/NT-3 growth factors receptor (Homo sapiens) (UniProt Q16620). The assay can be described thus: Inhibition of NTRK2 (unknown origin) at 0.19 uM relative to control.
Assay [18] has as its target Serine/threonine-protein kinase PAK 4 (Homo sapiens) (UniProt O96013). The experiment in a line: Inhibition of PAK4 (unknown origin) at 0.19 uM relative to control.
For assay [19], the target named is Protein kinase C theta type (Homo sapiens) (UniProt Q04759). The assay can be described thus: Inhibition of PKC-theta (unknown origin) at 0.19 uM relative to control.
In assay [20] the target is Tyrosine-protein kinase HCK (Homo sapiens) (UniProt P08631). The experiment in a line: Inhibition of Hck (unknown origin) at 0.19 uM relative to control.
Assay [21] addresses Vascular endothelial growth factor receptor 1 (Homo sapiens) (UniProt P17948). The assay can be described thus: Inhibition of FLT1 (unknown origin) at 0.19 uM relative to control.
The target of assay [22] is Protein kinase C zeta type (Homo sapiens) (UniProt Q05513). The experiment in a line: Inhibition of PKC-zeta (unknown origin) at 0.19 uM relative to control.
The target in assay [23] is Tyrosine-protein kinase ABL1 (Homo sapiens) (UniProt P00519). The assay can be described thus: Inhibition of ABL (unknown origin) at 0.19 uM relative to control.
The target in assay [24] is Ephrin type-B receptor 2 (Homo sapiens) (UniProt P29323). The assay can be described thus: Inhibition of EPHB2 (unknown origin) at 0.19 uM relative to control.
In assay [25] the target is Tyrosine-protein kinase Mer (Homo sapiens) (UniProt Q12866). The experiment in a line: Inhibition of Mer (unknown origin) at 0.19 uM relative to control.
The target of assay [26] is Ribosomal protein S6 kinase alpha-3 (Homo sapiens) (UniProt P51812). The experiment in a line: Inhibition of RSK2 (unknown origin) at 0.19 uM relative to control.
The target in assay [27] is Vascular endothelial growth factor receptor 3 (Homo sapiens) (UniProt P35916). The assay can be described thus: Inhibition of FLT4 (unknown origin) at 0.19 uM relative to control.

The structures appear in SMILES notation.

As for `COC(=O)Nc1cc(-c2c(C3CC3)n[nH]c2C)cc2[nH]ncc12`, the inhibition is 0.7% in assay [1]; 7.7% in [2]; -7.7% in [3]; -0.7% in [4]; -2.3% in [5]; 5.7% in assay [6]. The inhibition was 2.7% in [7]; 5.7% in assay [8]; 4.7% in [9]; -1% in assay [10]; 1.3% in assay [11]; 4% in assay [12]. Besides, the results for the inhibition in [13], in assay [14] and in [15] were 6%, 12% and 11.7%, respectively.

As for `Cc1[nH]nc(C2CC2)c1-c1ccc2c(-c3ccc(N4CCN(C)CC4)nc3)n[nH]c2c1`, the inhibition was -1.7% in [16]; 18.3% in assay [17]; 0.7% in assay [18]; 1.7% in assay [19]; 6.7% in [20]; 14.7% in assay [21]. The inhibition in assay [22] is 2.3%; in assay [23], 83.7%; in assay [24] it was 4%; in [25], -4%; in assay [26] it was -5.7%; in assay [27], 28.3%.
